Results on one compound are retold here after patent US20140170236A1, “USE OF PHOSPHORIC ACID” (priority 2010, published 2014).

Read-outs that look alike come from different tables or passages of the source.

One data set concerns coronary condition. Conditions: Example 1 subject; after twelve months of 2.5 mL daily (183 mg phosphorus); baseline stress test positive. The protocol: (§1) The cardiac interventionist prescribed the same kind of drug therapy as above. A stress test was conducted at this time to provide a baseline for comparing with possible future stress tests.
(§2) The subject then took a 2.5 mL daily dose of a 23.8% (mg/L) solution of phosphoric acid composition comprising 183 mg of phosphorus for a period of twelve months. This represented 26% of the RDA of phosphorous (700 mg) for an adult.

The next data set relates to calcified plaque. The settings on record: Example 1 subject; two years after angiogram that showed extensive calcified plaque. The protocol:
as §1, §2

How the values of data set [1] were obtained: (§3) The risk assessment assumed that the calcified plaque would increase at the usual anticipated rate of approximately 15% to 30% a year. They took a daily dose of 2.5 ml of a 23.8% (mg/L) phosphoric acid in water, (183 mg of phosphorus) for a period of six months. […] A third CT calcium scan was performed approximately three months after increasing the dose. This was eight months and twenty days after the initial dosing with phosphoric acid.

The test system of data set [2] is soft plaque in the arteries. The settings on record: Example 2 subject; at the time of the third CT calcium scan; no CTA scan before treatment. An excerpt: At the same time the most recent CT calcium scan was done, a Computed Tomography Angiography (CTA) scan was also done with contrast dye to determine the amount of soft plaque in the arteries.
For data set [3] the following is noted: Example 1 subject; 2.5 mL daily (183 mg phosphorus).
The subject of data set [4] is calcified plaque in the coronary arteries.
Text: A coronary computed tomography (CT) calcium scan is a test to assess the build up of plaque (calcification) in the coronary arteries. Because calcium is a component of hard plaque and is a marker of coronary artery disease (CAD) such a scan can be used as a diagnostic tool for CAD. The amount of calcium detected on a CT scan, expressed as a calcium score, reflects the degree and extent of calcium deposits on the walls of coronary arteries. Once calcified plaque begins to accumulate on arterial walls the amount deposited increases logarithmically at a rate of 15% to 30% a year.
The calcium score is an indicator of potential heart risk. […] A higher score is indicative of an increased risk and cardiologists express concern of the possibility of a heart incident at various levels but especially at 400 or above. Some treatments such as the product Crestor®, claim to slow the rate of deposition of plaque.
as §2, §3
The subject takes Famotadine for acid reflux and continues to smoke “one or two cigars a week.” The subject began taking a daily dose of 3.75 ml of a 23.8% (mg/L) phosphoric acid solution.
They currently take lipid lowering medication. They began taking 3.75 ml of a 23.8% (mg/L) phosphoric acid solution shortly after […] CT Calcium Scan.
Their medications includes: Benicar®, Crestor®, Niaspan®, and Lovaza®. Two and a half months after having the first Calcium Score assessment they began taking a daily dose of 3.75 ml of a 23.8% (mg/L) phosphoric acid solution. […] Note, cadaver studies consistently indicate that smokers are more prone to advanced artery disease.

As to `O=P(O)(O)O` [phosphoric acid], in the data set on coronary condition, the “second stress echo test result” value is given as “negative”. For the same compound, in the data set on calcified plaque, the “calcified plaque on CT Angiogram” value was “no calcified plaque except in the area of the stent”. For the same compound, the “side-effects related to the phosphoric acid composition” value in data set [1] (Example 1 subject, 2.5 mL daily (183 mg phosphorus)) is on record as “no side-effects”. For the same compound, the “side effects at the higher dose level” value in data set [1] (Example 2 subject, daily dose 3.75 ml (274 mg phosphorus)) is recorded as “no side effects”. Moreover, in data set [2], the soft plaque score is 0. For the same compound, the “bone density on bone scan” value in data set [3] is listed as “normal bone density”. Also, the “% Whose Ca Score Increased” value in data set [4] (All, sample size 5) is 20%; in data set [4] (Non-Smokers, sample size 4), 0%; in data set [4] (Smokers, sample size 1), 100%. For the same compound, the calcium score in data set [4] (Example 1 subject (man, stent), 2.5 mL daily of 23.8% (mg/L) solution, 183 mg phosphorus, after one year, no base score) is listed as 29; in data set [4] (Example 2 subject, initial score 181, 2.5 ml daily (183 mg phosphorus), second CT scan at six months), 181; in data set [4] (Example 2 subject, initial score 181, third scan eight months and twenty days after initial dosing, about three months after increase to 3.75 ml (274 mg phosphorus)), 179; in data set [4] (Example 3 subject, initial score 193, 3.75 ml daily of 23.8% (mg/L) solution, approximately six months) it was 122; in data set [4] (Example 4 subject, initial score 85, 3.75 ml of 23.8% (mg/L) solution, eight months) it was 83; in data set [4] (Example 5 subject (heavy smoker), initial score 117, 3.75 ml daily of 23.8% (mg/L) solution, eight months after start) it was 130. For the same compound, in data set [4] (Example 1 subject, after one year of 2.5 mL daily (183 mg phosphorus)), the “probability of a heart attack in the next 10 years” value is on record as 10%. Further, the “reduction of calcium score” value in data set [4] (Example 3 subject, 193 to 122, approximately six months of 3.75 ml daily) turned out to be 37%. The “calcium score lower than the initial score” value in data set [4] (Example 4 subject, 85 to 83, eight months) is 2 points. In data set [4] (Example 5 subject), the “annual rate of increase of calcium score” value was found to be 13.4%. Further, the “increase of calcium score” value in data set [4] (Example 5 subject, 117 to 130) worked out at 11%.
